Source: ChEMBL document CHEMBL1795221, “In vitro and in vivo anticancer activity evaluation of ursolic acid derivatives” (Eur J Med Chem, 2011)
Calls of active or inactive are those of the source. No cut-off for these calls is given here.

System: HepG2
Assay: Cell cycle arrest in human HepG2 cells assessed as reduction at G2/M phase after 24 hrs using propidium iodide staining by flow cytometric analysis
Type: functional, cell-based
Settings: not given

| SMILES | Activity |
| --- | --- |
| CC(=O)O[C@H]1CC[C@]2(C)[C@H]3CC=C4[C@@H]5[C@@H](C)[C@H](C)CC[C@]5(C(=O)N(CCO)CCO)CC[C@@]4(C)[C@]3(C)CC[C@H]2C1(C)C | Dose-dependent effect |

System: H22
Assay: Antitumor activity against mouse H22 cells xenografted in kunming mouse assessed as inhibition of tumor growth at 150 mg/kg, ip for 7 days
Type: functional
Settings: 168 h, route intraperitoneal

| SMILES | inhibition in vivo at 150 mg/kg [%] |
| --- | --- |
| C[C@H]1[C@H](C)CC[C@]2(C(=O)O)CC[C@]3(C)C(=CC[C@@H]4[C@@]5(C)CC[C@H](O)C(C)(C)[C@@H]5CC[C@]43C)[C@H]12 [URSOLIC ACID] | 36.2 |
| CC(=O)O[C@H]1CC[C@]2(C)[C@H]3CC=C4[C@@H]5[C@@H](C)[C@H](C)CC[C@]5(C(=O)N(CCO)CCO)CC[C@@]4(C)[C@]3(C)CC[C@H]2C1(C)C | 43 |

System: HepG2
Assay: Cell cycle arrest in human HepG2 cells assessed as accumulation at G0/G1 phase at 20 uM after 24 hrs using propidium iodide staining by flow cytometric analysis (reference value: 57.03 %)
Type: functional
Settings: not given

| SMILES | Activity [%] |
| --- | --- |
| CC(=O)O[C@H]1CC[C@]2(C)[C@H]3CC=C4[C@@H]5[C@@H](C)[C@H](C)CC[C@]5(C(=O)N(CCO)CCO)CC[C@@]4(C)[C@]3(C)CC[C@H]2C1(C)C | 52.91 |

System: H22
Assay: animal or person
Settings: Mus musculus, H22, ip, 168 h, read-out: INH
Description: Antitumor activity against mouse H22 cells xenografted in kunming mouse assessed as inhibition of tumor growth at 15 mg/kg, ip for 7 days

| SMILES | inhibition in vivo at 15 mg/kg [%] |
| --- | --- |
| O=P1(N(CCCl)CCCl)NCCCO1 (configuration not stated) [CYCLOPHOSPHAMIDE ANHYDROUS] | 55 |

System: HepG2
Assay: Cell cycle arrest in human HepG2 cells assessed as accumulation at G0/G1 phase at 10 uM after 24 hrs using propidium iodide staining by flow cytometric analysis (reference value: 57.03 %)
Type: functional
Settings: not given

| SMILES | Activity [%] |
| --- | --- |
| CC(=O)O[C@H]1CC[C@]2(C)[C@H]3CC=C4[C@@H]5[C@@H](C)[C@H](C)CC[C@]5(C(=O)N(CCO)CCO)CC[C@@]4(C)[C@]3(C)CC[C@H]2C1(C)C | 55.89 |

System: HepG2
Assay: Induction of apoptosis in human HepG2 cells assessed as increase in caspase-3 activity at 10 to 30 uM after 24 hrs by spectrophotometry
Type: functional, cell-based
Settings: not given

| SMILES | Activity |
| --- | --- |
| CC(=O)O[C@H]1CC[C@]2(C)[C@H]3CC=C4[C@@H]5[C@@H](C)[C@H](C)CC[C@]5(C(=O)N(CCO)CCO)CC[C@@]4(C)[C@]3(C)CC[C@H]2C1(C)C | Dose-dependent effect |

System: HepG2
Assay: Cell cycle arrest in human HepG2 cells assessed as accumulation at S phase at 20 uM after 24 hrs using propidium iodide staining by flow cytometric analysis (reference value: 28.66 %)
Type: functional
Settings: not given

| SMILES | Activity [%] |
| --- | --- |
| CC(=O)O[C@H]1CC[C@]2(C)[C@H]3CC=C4[C@@H]5[C@@H](C)[C@H](C)CC[C@]5(C(=O)N(CCO)CCO)CC[C@@]4(C)[C@]3(C)CC[C@H]2C1(C)C | 37.43 |

System: HepG2
Assay: Induction of apoptosis in human HepG2 cells at 10 to 30 uM after 24 hrs using annexin V-EGFP/PI double staining by flow cytometry
Type: functional, cell-based
Settings: not given

| SMILES | Activity |
| --- | --- |
| CC(=O)O[C@H]1CC[C@]2(C)[C@H]3CC=C4[C@@H]5[C@@H](C)[C@H](C)CC[C@]5(C(=O)N(CCO)CCO)CC[C@@]4(C)[C@]3(C)CC[C@H]2C1(C)C | Dose-dependent effect |

System: HeLa
Assay: cells
Settings: Homo sapiens, 24 h
Description: Cytotoxicity against human HeLa cells after 24 hrs by MTT assay

| IC50 [µM] | SMILES |
| --- | --- |
| 33.1 | C[C@H]1[C@H](C)CC[C@]2(C(=O)O)CC[C@]3(C)C(=CC[C@@H]4[C@@]5(C)CC[C@H](O)C(C)(C)[C@@H]5CC[C@]43C)[C@H]12 [URSOLIC ACID] |
| 10.9 | CC(=O)O[C@H]1CC[C@]2(C)[C@H]3CC=C4[C@@H]5[C@@H](C)[C@H](C)CC[C@]5(C(=O)N(CCO)CCO)CC[C@@]4(C)[C@]3(C)CC[C@H]2C1(C)C |

System: HepG2
Assay: Cell cycle arrest in human HepG2 cells assessed as accumulation at S phase at 10 uM after 24 hrs using propidium iodide staining by flow cytometric analysis (reference value: 28.66 %)
Type: functional
Settings: not given

| SMILES | Activity [%] |
| --- | --- |
| CC(=O)O[C@H]1CC[C@]2(C)[C@H]3CC=C4[C@@H]5[C@@H](C)[C@H](C)CC[C@]5(C(=O)N(CCO)CCO)CC[C@@]4(C)[C@]3(C)CC[C@H]2C1(C)C | 32.13 |

System: BGC-823
Assay: Induction of apoptosis in human BGC823 cells assessed as increase in caspase-3 activity at 10 to 30 uM after 24 hrs by spectrophotometry
Type: functional, cell-based
Settings: not given

| SMILES | Activity |
| --- | --- |
| CC(=O)O[C@H]1CC[C@]2(C)[C@H]3CC=C4[C@@H]5[C@@H](C)[C@H](C)CC[C@]5(C(=O)N(CCO)CCO)CC[C@@]4(C)[C@]3(C)CC[C@H]2C1(C)C | Dose-dependent effect |

System: BGC-823
Assay: Cytotoxicity against human BGC823 cells after 24 hrs by MTT assay
Type: functional, cell-based
Settings: BGC-823, 24 h

| SMILES | IC50 [µM] |
| --- | --- |
| C[C@H]1[C@H](C)CC[C@]2(C(=O)O)CC[C@]3(C)C(=CC[C@@H]4[C@@]5(C)CC[C@H](O)C(C)(C)[C@@H]5CC[C@]43C)[C@H]12 [URSOLIC ACID] | 66.4 |
| CC(=O)O[C@H]1CC[C@]2(C)[C@H]3CC=C4[C@@H]5[C@@H](C)[C@H](C)CC[C@]5(C(=O)N(CCO)CCO)CC[C@@]4(C)[C@]3(C)CC[C@H]2C1(C)C | 15.5 |

System: not listed separately
Assay: Cytotoxicity against human HELF cells after 24 hrs by MTT assay
Type: cell-based
Settings: not given

| SMILES | IC50 [µM] |
| --- | --- |
| C[C@H]1[C@H](C)CC[C@]2(C(=O)O)CC[C@]3(C)C(=CC[C@@H]4[C@@]5(C)CC[C@H](O)C(C)(C)[C@@H]5CC[C@]43C)[C@H]12 [URSOLIC ACID] | 21.3 |
| CC(=O)O[C@H]1CC[C@]2(C)[C@H]3CC=C4[C@@H]5[C@@H](C)[C@H](C)CC[C@]5(C(=O)N(CCO)CCO)CC[C@@]4(C)[C@]3(C)CC[C@H]2C1(C)C | 38.1 |

System: H22
Assay: Antitumor activity against mouse H22 cells xenografted in kunming mouse assessed as inhibition of tumor growth at 100 mg/kg, ip for 7 days
Type: functional
Settings: 168 h, route intraperitoneal

| SMILES | inhibition in vivo at 100 mg/kg [%] |
| --- | --- |
| CC(=O)O[C@H]1CC[C@]2(C)[C@H]3CC=C4[C@@H]5[C@@H](C)[C@H](C)CC[C@]5(C(=O)N(CCO)CCO)CC[C@@]4(C)[C@]3(C)CC[C@H]2C1(C)C | 45.6 |

System: HepG2
Assay: Cell cycle arrest in human HepG2 cells assessed as accumulation at S phase at 30 uM after 24 hrs using propidium iodide staining by flow cytometric analysis (reference value: 28.66 %)
Type: functional
Settings: not given

| SMILES | Activity [%] |
| --- | --- |
| CC(=O)O[C@H]1CC[C@]2(C)[C@H]3CC=C4[C@@H]5[C@@H](C)[C@H](C)CC[C@]5(C(=O)N(CCO)CCO)CC[C@@]4(C)[C@]3(C)CC[C@H]2C1(C)C | 41.53 |

System: HepG2
Assay: Cell cycle arrest in human HepG2 cells assessed as accumulation at G2/M phase at 30 uM after 24 hrs using propidium iodide staining by flow cytometric analysis (reference value: 14.31 %)
Type: functional
Settings: not given

| SMILES | Activity [%] |
| --- | --- |
| CC(=O)O[C@H]1CC[C@]2(C)[C@H]3CC=C4[C@@H]5[C@@H](C)[C@H](C)CC[C@]5(C(=O)N(CCO)CCO)CC[C@@]4(C)[C@]3(C)CC[C@H]2C1(C)C | 6.9 |

System: SH-SY5Y
Assay: Cytotoxicity against human SH-SY5Y cells after 24 hrs by MTT assay
Type: functional, cell-based
Settings: not given

| SMILES | IC50 [µM] |
| --- | --- |
| C[C@H]1[C@H](C)CC[C@]2(C(=O)O)CC[C@]3(C)C(=CC[C@@H]4[C@@]5(C)CC[C@H](O)C(C)(C)[C@@H]5CC[C@]43C)[C@H]12 [URSOLIC ACID] | 54.6 |
| CC(=O)O[C@H]1CC[C@]2(C)[C@H]3CC=C4[C@@H]5[C@@H](C)[C@H](C)CC[C@]5(C(=O)N(CCO)CCO)CC[C@@]4(C)[C@]3(C)CC[C@H]2C1(C)C | 13.2 |

System: HepG2
Assay: Cell cycle arrest in human HepG2 cells assessed as accumulation at G0/G1 phase after 24 hrs using propidium iodide staining by flow cytometric analysis
Type: functional, cell-based
Settings: not given

| SMILES | Activity |
| --- | --- |
| CC(=O)O[C@H]1CC[C@]2(C)[C@H]3CC=C4[C@@H]5[C@@H](C)[C@H](C)CC[C@]5(C(=O)N(CCO)CCO)CC[C@@]4(C)[C@]3(C)CC[C@H]2C1(C)C | Dose-dependent effect |

System: HepG2
Assay: Cell cycle arrest in human HepG2 cells assessed as accumulation at G2/M phase at 10 uM after 24 hrs using propidium iodide staining by flow cytometric analysis (reference value: 14.31 %)
Type: functional
Settings: not given

| SMILES | Activity [%] |
| --- | --- |
| CC(=O)O[C@H]1CC[C@]2(C)[C@H]3CC=C4[C@@H]5[C@@H](C)[C@H](C)CC[C@]5(C(=O)N(CCO)CCO)CC[C@@]4(C)[C@]3(C)CC[C@H]2C1(C)C | 11.98 |

System: HepG2
Assay: Cell cycle arrest in human HepG2 cells assessed as accumulation at G2/M phase at 20 uM after 24 hrs using propidium iodide staining by flow cytometric analysis (reference value: 14.31 %)
Type: functional
Settings: not given

| SMILES | Activity [%] |
| --- | --- |
| CC(=O)O[C@H]1CC[C@]2(C)[C@H]3CC=C4[C@@H]5[C@@H](C)[C@H](C)CC[C@]5(C(=O)N(CCO)CCO)CC[C@@]4(C)[C@]3(C)CC[C@H]2C1(C)C | 9.66 |

System: HepG2
Assay: Cell cycle arrest in human HepG2 cells assessed as accumulation at G0/G1 phase at 30 uM after 24 hrs using propidium iodide staining by flow cytometric analysis (reference value: 57.03 %)
Type: functional
Settings: not given

| SMILES | Activity [%] |
| --- | --- |
| CC(=O)O[C@H]1CC[C@]2(C)[C@H]3CC=C4[C@@H]5[C@@H](C)[C@H](C)CC[C@]5(C(=O)N(CCO)CCO)CC[C@@]4(C)[C@]3(C)CC[C@H]2C1(C)C | 51.57 |

System: HepG2
Assay: Induction of apoptosis in human HepG2 cells at 10 to 30 uM after 24 hrs using acridine orange staining by fluorescence microscopy
Type: functional, cell-based
Settings: not given

| SMILES | Activity |
| --- | --- |
| CC(=O)O[C@H]1CC[C@]2(C)[C@H]3CC=C4[C@@H]5[C@@H](C)[C@H](C)CC[C@]5(C(=O)N(CCO)CCO)CC[C@@]4(C)[C@]3(C)CC[C@H]2C1(C)C | Active |

System: H22
Assay: Antitumor activity against mouse H22 cells xenografted in kunming mouse assessed as inhibition of tumor growth at 50 mg/kg, ip for 7 days
Type: functional
Settings: 168 h, read-out: INH, route intraperitoneal

| SMILES | inhibition in vivo at 50 mg/kg [%] |
| --- | --- |
| CC(=O)O[C@H]1CC[C@]2(C)[C@H]3CC=C4[C@@H]5[C@@H](C)[C@H](C)CC[C@]5(C(=O)N(CCO)CCO)CC[C@@]4(C)[C@]3(C)CC[C@H]2C1(C)C | 36.6 |

System: HepG2
Assay: Cell cycle arrest in human HepG2 cells assessed as accumulation at S phase after 24 hrs using propidium iodide staining by flow cytometric analysis
Type: functional, cell-based
Settings: not given

| SMILES | Activity |
| --- | --- |
| CC(=O)O[C@H]1CC[C@]2(C)[C@H]3CC=C4[C@@H]5[C@@H](C)[C@H](C)CC[C@]5(C(=O)N(CCO)CCO)CC[C@@]4(C)[C@]3(C)CC[C@H]2C1(C)C | Dose-dependent effect |

System: H22
Assay: Antitumor activity against mouse H22 cells xenografted in kunming mouse assessed as increase in body weight at 50 to 150 mg/kg, ip for 7 days
Type: functional, organism-based
Settings: not given

| SMILES | Activity |
| --- | --- |
| CC(=O)O[C@H]1CC[C@]2(C)[C@H]3CC=C4[C@@H]5[C@@H](C)[C@H](C)CC[C@]5(C(=O)N(CCO)CCO)CC[C@@]4(C)[C@]3(C)CC[C@H]2C1(C)C | Active |

System: HepG2
Assay: cells
Settings: Homo sapiens, HepG2, 24 h
Description: Cytotoxicity against human HepG2 cells after 24 hrs by MTT assay

| IC50 [µM] | SMILES |
| --- | --- |
| 68.8 | C[C@H]1[C@H](C)CC[C@]2(C(=O)O)CC[C@]3(C)C(=CC[C@@H]4[C@@]5(C)CC[C@H](O)C(C)(C)[C@@H]5CC[C@]43C)[C@H]12 [URSOLIC ACID] |
| 20.2 | CC(=O)O[C@H]1CC[C@]2(C)[C@H]3CC=C4[C@@H]5[C@@H](C)[C@H](C)CC[C@]5(C(=O)N(CCO)CCO)CC[C@@]4(C)[C@]3(C)CC[C@H]2C1(C)C |
